From ChEMBL document CHEMBL1201862, “PubChem BioAssay data set” (2004)
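Cultured in 96-well plates, cells were exposed to test compound for 48 hours across five concentrations. GI50 = concentration required for 50% inhibition of growth.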 The source made the active and inactive calls. Cut-off read from the data, not from the text of the source: active = GI50 up to about 1.1 µM and inactive = higher.

Key:
Assay in all cases: growth of human tumour cells (NCI), 48 h
786-0 = test system: 786-0
A498 = test system: A498
LOX IMVI = test system: LOX IMVI
M14 = test system: M14
MOLT-4 = test system: MOLT-4
Malme-3M = test system: Malme-3M
OVCAR-3 = test system: OVCAR-3
OVCAR-5 = test system: OVCAR-5
OVCAR-8 = test system: OVCAR-8
SK-MEL-28 = test system: SK-MEL-28
SK-MEL-5 = test system: SK-MEL-5
SN12C = test system: SN12C
SNB-75 = test system: SNB-75
SR = test system: SR
SW-620 = test system: SW-620
UACC-257 = test system: UACC-257
EKVX = test system: EKVX
HOP-62 = test system: HOP-62

Measured: GI50

O=C(O)CCc1cccc2c1oc1c(CCC(=O)O)cccc12
inactive: 786-0 > 100 µM | A498 > 100 µM | LOX IMVI > 100 µM | M14 > 100 µM | MOLT-4 > 100 µM | Malme-3M > 100 µM | OVCAR-3 > 100 µM | OVCAR-5 > 100 µM | OVCAR-8 > 100 µM | SK-MEL-28 > 100 µM | SK-MEL-5 > 100 µM | SN12C > 100 µM | SNB-75 > 100 µM | SR > 100 µM | SW-620 > 100 µM | UACC-257 > 100 µM

O=C1C(c2ccccc2)=[N+]([O-])c2cc([N+](=O)[O-])c(/C(Cl)=C/c3ccccc3)cc21
inactive: 786-0 29.9 µM | EKVX 25.7 µM | LOX IMVI 13.7 µM | M14 16 µM | MOLT-4 13.9 µM | OVCAR-3 13.5 µM | OVCAR-5 31.2 µM | OVCAR-8 16.1 µM | SK-MEL-28 27.4 µM | SK-MEL-5 20.4 µM | SNB-75 31.4 µM | SR 17.9 µM | SW-620 17.3 µM

COc1cccc(NC(=O)CC(=O)n2nc(C)c(/N=N/c3ccccc3)c2C)c1
inactive: 786-0 > 100 µM | A498 76 µM | EKVX 58.6 µM | HOP-62 > 100 µM | LOX IMVI 83.6 µM | M14 > 100 µM | MOLT-4 69.2 µM | Malme-3M > 100 µM | OVCAR-3 > 100 µM | OVCAR-8 > 100 µM | SK-MEL-28 > 100 µM | SK-MEL-5 76.4 µM | SN12C > 100 µM | SNB-75 47.8 µM | SR 78.7 µM | SW-620 > 100 µM | UACC-257 > 100 µM

CC(=O)c1ccc(NC(=O)C(=O)C(C#N)CC(C)(C)C=O)cc1 (stereo unspecified)
inactive: 786-0 > 100 µM | A498 > 100 µM | EKVX > 100 µM | HOP-62 > 100 µM | LOX IMVI > 100 µM | M14 > 100 µM | MOLT-4 > 100 µM | Malme-3M > 100 µM | OVCAR-3 > 100 µM | OVCAR-5 > 100 µM | OVCAR-8 > 100 µM | SK-MEL-28 > 100 µM | SK-MEL-5 > 100 µM | SN12C > 100 µM | SR > 100 µM | SW-620 > 100 µM | UACC-257 > 100 µM

O=C(CCc1nnc(S)[nH]1)Nc1cccc(C(F)(F)F)c1
inactive: 786-0 > 100 µM | A498 > 100 µM | EKVX > 100 µM | HOP-62 > 100 µM | LOX IMVI > 100 µM | M14 > 100 µM | MOLT-4 > 100 µM | Malme-3M > 100 µM | OVCAR-3 > 100 µM | OVCAR-5 > 100 µM | OVCAR-8 > 100 µM | SK-MEL-28 > 100 µM | SK-MEL-5 > 100 µM | SN12C > 100 µM | SNB-75 > 100 µM | SR > 100 µM | SW-620 11.2 µM | UACC-257 > 100 µM

CCOC(=O)C(N=C(c1ccccc1)c1ccccc1)N(C(=O)OC(C)(C)C)C(=O)OC(C)(C)C (stereo unspecified)
inactive: 786-0 > 100 µM | EKVX > 100 µM | MOLT-4 > 100 µM | Malme-3M > 100 µM | OVCAR-3 > 100 µM | OVCAR-5 > 100 µM | OVCAR-8 > 100 µM | SK-MEL-28 > 100 µM | SK-MEL-5 > 100 µM | SN12C > 100 µM | SNB-75 82 µM | SR 69.3 µM | SW-620 > 100 µM | UACC-257 > 100 µM

Cc1cc(C)n(CCNCCn2nc(C)cc2C)n1
inactive: 786-0 > 100 µM | A498 > 100 µM | EKVX > 100 µM | HOP-62 > 100 µM | LOX IMVI > 100 µM | M14 > 100 µM | MOLT-4 > 100 µM | OVCAR-3 > 100 µM | OVCAR-8 > 100 µM | SK-MEL-28 91 µM | SK-MEL-5 > 100 µM | SN12C > 100 µM | SNB-75 > 100 µM | SR > 100 µM | SW-620 > 100 µM | UACC-257 > 100 µM

Cc1nc(=O)n2c(c1C(=O)Nc1ccc(Cl)cc1)NCCC2
inactive: 786-0 > 100 µM | EKVX > 100 µM | HOP-62 > 100 µM | LOX IMVI > 100 µM | M14 > 100 µM | MOLT-4 > 100 µM | Malme-3M > 100 µM | OVCAR-3 > 100 µM | OVCAR-5 > 100 µM | OVCAR-8 > 100 µM | SK-MEL-28 > 100 µM | SN12C > 100 µM | SR > 100 µM | SW-620 > 100 µM

O=C(CSSCC(=O)Nc1ccc(Br)cc1)Nc1ccc(Br)cc1
inactive: 786-0 17.6 µM | A498 19.6 µM | EKVX 26.5 µM | HOP-62 12.4 µM | LOX IMVI 10.8 µM | M14 17.7 µM | MOLT-4 14.1 µM | Malme-3M 21.8 µM | OVCAR-3 18.1 µM | OVCAR-5 18.2 µM | OVCAR-8 17.3 µM | SK-MEL-28 18.5 µM | SK-MEL-5 24 µM | SN12C 16.3 µM | SNB-75 20.7 µM | SR 10.3 µM | SW-620 15.2 µM | UACC-257 20.7 µM

O=C1CSC(Cc2nc3ccccc3[nH]2)=N1
inactive: 786-0 17.1 µM | A498 5.98 µM | EKVX 33.7 µM | HOP-62 22.3 µM | LOX IMVI 13.9 µM | M14 15.4 µM | MOLT-4 9.98 µM | Malme-3M 10.6 µM | OVCAR-3 14.3 µM | OVCAR-5 28.8 µM | OVCAR-8 23.5 µM | SK-MEL-28 16 µM | SK-MEL-5 7.45 µM | SN12C 18.1 µM | SNB-75 17.1 µM | SR 5.83 µM | SW-620 31.9 µM | UACC-257 19.7 µM

C#CCCCCC#CC1CCCC1C1=CC(=O)c2ccccc21 (stereo unspecified)
inactive: A498 15 µM | EKVX 14.8 µM | HOP-62 7.36 µM | LOX IMVI 3.22 µM | M14 5.07 µM | MOLT-4 2.25 µM | Malme-3M 6.55 µM | OVCAR-3 5.3 µM | OVCAR-5 11.5 µM | OVCAR-8 1.66 µM | SK-MEL-28 5.18 µM | SK-MEL-5 7.67 µM | SN12C 6.38 µM | SNB-75 5.45 µM | SR 2.79 µM | SW-620 2.28 µM | UACC-257 11.2 µM

CCCCC#C[I+]c1ccccc1
inactive: 786-0 15.5 µM | A498 31 µM | EKVX 15.6 µM | HOP-62 21.5 µM | LOX IMVI 12.3 µM | M14 15.5 µM | MOLT-4 3.82 µM | Malme-3M 14.8 µM | OVCAR-3 16 µM | OVCAR-5 14.8 µM | OVCAR-8 16.1 µM | SK-MEL-28 17 µM | SK-MEL-5 17.3 µM | SN12C 14.5 µM | SNB-75 15.6 µM | SR 15.1 µM | UACC-257 16.3 µM

O=c1[nH]cc(COCC(F)(F)C(F)(F)C(F)(F)C(F)F)c(=O)[nH]1
inactive: 786-0 > 100 µM | EKVX > 100 µM | HOP-62 > 100 µM | LOX IMVI > 100 µM | M14 > 100 µM | MOLT-4 > 100 µM | Malme-3M > 100 µM | OVCAR-3 > 100 µM | OVCAR-5 > 100 µM | OVCAR-8 > 100 µM | SK-MEL-28 > 100 µM | SK-MEL-5 > 100 µM | SN12C > 100 µM | SNB-75 > 100 µM | SR > 100 µM | SW-620 > 100 µM | UACC-257 > 100 µM

c1ccc2c(c1)N=C(c1ccc3ccccc3c1)CC(c1cccc3ccccc13)S2 (stereo unspecified)
inactive: 786-0 44.1 µM | A498 27.5 µM | EKVX 61.4 µM | HOP-62 85.5 µM | LOX IMVI 25.3 µM | M14 54.8 µM | MOLT-4 11.4 µM | Malme-3M > 100 µM | OVCAR-3 33 µM | OVCAR-5 > 100 µM | OVCAR-8 37.9 µM | SK-MEL-28 83.4 µM | SK-MEL-5 38.5 µM | SN12C 59.3 µM | SNB-75 56.5 µM | SW-620 32.8 µM | UACC-257 56.6 µM

CCC(COC(=O)CC[C@@H](NC(=O)C(C)NC(=O)C(C)OC1C(O)C(CO)OC(OCc2ccccc2)C1NC(C)=O)C(N)=O)NC1c2ccccc2Nc2cccc([N+](=O)[O-])c21 (stereo partly specified)
inactive: 786-0 67.1 µM | EKVX > 100 µM | HOP-62 > 100 µM | LOX IMVI > 100 µM | M14 > 100 µM | MOLT-4 > 100 µM | Malme-3M > 100 µM | OVCAR-3 80.2 µM | OVCAR-5 > 100 µM | OVCAR-8 > 100 µM | SK-MEL-28 > 100 µM | SK-MEL-5 > 100 µM | SN12C > 100 µM | SNB-75 94.8 µM | SR > 100 µM | SW-620 > 100 µM | UACC-257 > 100 µM

Cc1ccccc1NC(=O)CSc1nnc(-c2ccc(/N=C\c3ccc(Cl)cc3)cc2)o1
inactive: 786-0 > 100 µM | EKVX > 100 µM | HOP-62 > 100 µM | LOX IMVI > 100 µM | M14 > 100 µM | MOLT-4 > 100 µM | Malme-3M > 100 µM | OVCAR-8 > 100 µM | SK-MEL-28 > 100 µM | SK-MEL-5 > 100 µM | SN12C > 100 µM | SNB-75 > 100 µM | SR > 100 µM | SW-620 > 100 µM | UACC-257 > 100 µM
